Data from patent publication US20190167640A1, “METHODS FOR TREATMENT OF MUSCULAR DYSTROPHIES” (Akashi Therapeutics, Inc., priority 2013, published 2019).
“Also recorded” adds a separate entry of the source.

Experiments:
[1] = system: EDL muscle of exercised mdx mice; test: Isometric and eccentric contraction of EDL muscle after in vivo treatment; conditions: same treatments; for fatigue of EDL (drop during the first 5 tetani): tetani at 5 sec intervals
[2] = system: EDL myofibers of exercised mdx mice; test: Cable parameters and macroscopic ionic conductance of EDL myofibers (two microelectrode current clamp); format: in vivo; conditions: Compound (I) 30 mg/kg, nandrolone 5 mg/kg, PDN 1 mg/kg, 6 days/week, 4-6 weeks
Protocol: (§1) The chronic exercise consisted of 30 min running on horizontal treadmill at 12 m/min twice a week. Drug treatment started one day before the exercise protocol. At least 4 weeks of exercise were performed before starting the ex vivo experiments. In vivo parameters were monitored weekly throughout. Age of the mice at the time of ex-vivo experiments: 9-12 weeks. The effectiveness of the test compounds was then evaluated ex vivo for: • Mechanical properties of EDL muscle and diaphragm strips by isometric contraction • Mechanical threshold of EDL muscle, i.e. the voltage threshold for fiber contraction, as an index of excitation-contraction coupling mechanism and calcium homeostasis (two microelectode “point” voltage clamp method) • Cable parameters and macroscopic ionic conductance (two microelectrode current clamp recordings) • Spectrophotometric determination of plasma level of creatine kinase (CK), as an index of sarcolemmal damage, lactate dehydrogenase (LDH) as an index of metabolic sufferance, reactive oxygen species, as a marker of oxidative stress • Morphometric analysis of gastrocnemious (GC) muscle and diaphragm
Passive cable properties are calculated for the spatial and temporal changes of membrane potential in response to a hyperpolarizing square current pulses. […]

[3] = system: diaphragm strips of exercised mdx mice; test: Isometric contraction of diaphragm strips after in vivo treatment; conditions: for twitch tension of diaphragm strips: exercised mdx mice, Compound (I) 30 mg/kg s.c., nandrolone 5 mg/kg s.c., PDN 1 mg/kg i.p., 6 days/week, 4-6 weeks; for fatigue of diaphragm (drop of force after 5 repetitive tetani) / tetanic force of diaphragm: same treatments; for fatigue of diaphragm (drop of force after 5 repetitive tetani): 5 tetani at 100 Hz, 5 sec intervals; for tetanic force of diaphragm: vehicle-treated exercised mdx groups pooled together (FIG. 2B)
Protocol: Compound (I) and nandrolone were dissolved in 10% Ethanol/90% Corn Oil (Sigma-Aldrich) in order to have the final dosage needed in the volume of 0.1 ml/10 g body weight. PDN (from the commercial formulation URBASON) was diluted sterile water for injection (0.1 ml/10 g body weight). 40 mdx mice 5-6 weeks old (Charles River Italy for Jackson Lab) were first (at the beginning of the exercise/treatment period (Time 0)) randomized in groups homogeneous for body weight, fore limb strength and normalized force (fore limb strength/body weight), as follows: • 7 SEDENTARY MDX+VEHICLE (ethanol and corn oil) • 7 UNTREATED EXERCISED MDX+VEHICLE (ethanol and corn oil) • 9 EXERCISED MDX+Compound (I) 30 mg/kg • 8 EXERCISED MDX+Nandrolone 5 mg/kg • 3 EXERCISED MDX+VEHICLE (sterile water) • 6 EXERCISED MDX+PDN 1 mg/kg
The duration of the treatment was 4-6 weeks. At the end of 4 weeks, 34 mice remained on the protocol, as follows: • 7 SEDENTARY MDX+VEHICLE (ethanol and corn oil) • 7 UNTREATED EXERCISED MDX+VEHICLE (ethanol and corn oil) • 6 EXERCISED MDX+Compound (I) 30 mg/kg • 5 EXERCISED MDX+Nandrolone 5 mg/kg • 3 EXERCISED MDX+VEHICLE (sterile water) • 6 EXERCISED MDX+PDN 1 mg/kg
as §1
Standard isometric contraction measurements on both EDL muscle and diaphragm strips were obtained by electric field stimulation via two axial platinum wires. For each preparation, a preliminary stabilization procedure (for proper temperature equilibration and relaxation after handling) was followed by the determination of the optimal resting length, i.e. the resting tension that allowed the maximal tension to be elicited by 40V depolarizing steps of 0.2ms duration. The preparations were then allowed to rest for about 30 min before starting the recording procedure.
Twitch tension: 5 single twitches elicited by pulses of 40 V and 0.2 ms (every 30 sec)→determination of maximal twitch tension and contraction kinetic (time to peak and half relaxation time);
Force frequency curve: 450 ms trains of 0.2 ms 40V pulses from 10 to 140 Hz→determination of maximal tetanic tension and frequency for half-maximal activation (Hz50) Fatigue: 5 tetani at 100 Hz (450 ms) and 5 sec intervals→determination of % drop of tension

[4] = system: EDL myofibers of exercised mdx mice; test: Mechanical threshold of EDL muscle (two microelectrode point voltage clamp); format: in vivo; conditions: for mechanical threshold: potential (voltage threshold) for fiber contraction of EDL myofibers: Compound (I) 30 mg/kg, nandrolone 5 mg/kg, PDN 1 mg/kg, 6 days/week, 4 weeks, all pulse durations; for rheobase voltage of EDL muscles / time constant to reach the rheobase, EDL myofibers: same treatments; for rheobase voltage of EDL muscles: calculated from fit of strength-duration curve; for time constant to reach the rheobase, EDL myofibers: from fit of strength-duration curve
Protocol: as §1
Mechanical threshold (MT) is an electrophysiological index of excitation contraction-coupling and of calcium homeostasis (De Luca et al., JPET 2003; Fraysse et al., Neurobiol. Dis., 2004). The application of depolarizing voltage steps of increasing durations shifts the contraction for fiber contraction toward more negative potential until a constant rheobase voltage is reached. The rheobase voltage represents the voltage at which the calcium that is released from the sarcoplasmis reticulum and the calcium reuptaken are at the steady-state. A shift of rheobase voltage toward more negative potential, as occurring in dystrophic mdx EDL myofibers, is indicative of more calcium being available for contraction, either resulting from greater release or slower reuptake or higher basal cytosolic levels.
In FIG. 30A, the data, expressed as the means±S.E.M. from 14 to 30 values from 2 to 5 preparations, show the voltages for the contraction of EDL myofibres (mechanical threshold) at increasing pulse duration in wild-type mice (WT, black circles) and in mdx mice treated with either vehicle (corn oil and water; Mdx+VTOT, white circles), 30 mg/kg Compound (I) (white triangles), 5 mg/kg nandrolone (upside-down black triangles) or 1 mg/kg PDN (white rhombus). The drugs were given 6 days per week. […] For some data points, the standard error bar is not visible because it is smaller than the symbol size. In FIGS. 30B and 30C, the rheobase voltage, in mV and the time constant, in ms, with relative standard errors, have been calculated from the fit of data points of the voltage-duration curves in A. In FIG. 30D, the total resting membrane ionic conductances (gm) in μS/cm^2 of EDL muscle fibres of the same experimental groups described in A are shown. The bars represent the means±SEM from the number of 3-5 prep/25-37 fibres. For each parameter, the significant differences between groups were evaluated using ANOVA for multiple comparisons (F values) and the Bonferroni t-test post hoc correction. Significant differences were found for rheobase voltage (F>4; p<0.003) and gm (F>7; p<0.0002).
In FIG. 31A, the data, expressed as the means±S.E.M. from 27 to 41 values from 3 preparations, show the voltages for the contraction of EDL myofibres (mechanical threshold) at increasing pulse duration in wild type mice (WT, black circles) and in mdx mice treated with either corn oil (Mdx+V1, white circles) or Compound (I) at 0.3 (white square), 3 (black square) or 30 mg/kg (white triangles). The drugs were given 6 days per week. […] For some data points, the standard error bar is not visible because it is smaller than the symbol size. […]

exercised mdx mice = test: Spectrophotometric determination of plasma creatine kinase, lactate dehydrogenase and reactive oxygen species; format: in vivo; conditions: same treatments
Protocol: as §1
A marked elevation of plasma creatine kinase is a typical diagnostic marker of muscular dystrophy. In parallel an increase in lactate dehydrogenase is also observed as a sign of metabolic sufferance while an increase on reactive oxygen species can occur as a result of ongoing oxidative stress. Generally, these biochemical indices are further aggravated by the exercise protocol. However, in the present study all the three parameters CK, LDH and ROS were particularly altered in the sedentary mdx mice and therefore no remarkable effect of exercise was observed.

[5] = system: diaphragm and GC muscle of exercised mdx mice; test: Histology and morphometric analysis of gastrocnemius (GC) muscle and diaphragm; format: in vivo; conditions: preliminary morphometric analysis (FIG. 23)
Protocol: as §1
Representative pictures of histology profile of diaphragm and GC muscles in the various experimental conditions are shown in FIG. 22.

SMILES | frequency for half-maximal activation (Hz50) of EDL [1] | twitch/tetanus ratio of EDL [1] | membrane resistance (Rm) and total membrane ionic conductance (gm) of EDL myofibers [2] | twitch tension of diaphragm strips [3] | fatigue of diaphragm (drop of force after 5 repetitive tetani) [3] | tetanic force of diaphragm [3] | mechanical threshold: potential (voltage threshold) for fiber contraction of EDL myofibers [4] | mechanical threshold: voltage threshold values of EDL myofibres ([4]; Compound (I) at 0.3, 3 or 30 mg/kg, 6 days per week, second study (up to 12 weeks), vs vehicle-treated mdx) | rheobase voltage of EDL muscles [4] | time constant to reach the rheobase, EDL myofibers [4] | lactate dehydrogenase (LDH) (exercised mdx mice) | fatigue of EDL (drop during the first 5 tetani) [1] | creatine kinase (CK) (exercised mdx mice) | fiber area of both normal and centronucleated fibers [5] | twitch tension of EDL [1]
CN1C(=O)N(c2ccc(C#N)c(C(F)(F)F)c2)C(=O)[C@@]1(CO)c1ccccc1 [Compound (I)] | no significant effects | no effect | effects comparable to that of PDN | greater than those of untreated ones and no more significantly different with respect to those of weight | protection was observed | significantly greater than those of untreated, although still lower than weight ones | significant shift of the potential for fiber contraction toward weight values; also recorded: significantly more positive | significantly more positive | almost overlapping that of weight | remarkably shorter than those of untreated exercised and not significantly different with respect to that of weight | slight, but not significant reduction | – | – | – | –
C[C@H]1C[C@@H]2[C@H]([C@@H](O)C[C@@]3(C)[C@H]2CC[C@]3(O)C(=O)CO)[C@@]2(C)C=CC(=O)C=C12 [PDN, α-methyl-prednisolone] | no significant effects | slight but not significant decrease | effect consistent with that observed in previous studies | the two anabolic compounds exerted a greater protection than PDN | protection was observed | significantly greater than those of untreated, although still lower than weight ones | less effective than Compound (I); also recorded: significantly more positive | – | values intermediate between untreated mdx and weight | effect of Compound (I) on this parameter was greater than that of nandrolone and PDN | lack of effect | partial recovery | lack of effect | increase | –
C[C@]12CC[C@H]3[C@@H](CCC4=CC(=O)CC[C@@H]43)[C@@H]1CC[C@@H]2O [nandrolone] | no significant effects | no effect | – | greater than those of untreated ones and no more significantly different with respect to those of weight | – | significantly greater than those of untreated, although still lower than weight ones | less effective than Compound (I); also recorded: significantly more positive | – | values intermediate between untreated mdx and weight | effect of Compound (I) on this parameter was greater than that of nandrolone and PDN | – | partial recovery | – | increase | tendency toward an increase
